These results are taken from paper PMC7480010 (Journal of biomolecular screening, 2015).

The test system of the assay is MDA-MB-231. The format is cell-based, human. Particulars: anisomycin stimulation.

`Cc1ccc(-n2nc(C(C)(C)C)cc2NC(=O)Nc2ccc(OCCN3CCOCC3)c3ccccc23)cc1` [BIRB-796]: the “level of phosphorylated/activated p38” value was “reduces in the overall level of phosphorylated p38” and the “phosphorylation status of SAPK/JNK” value is “reduces the phosphorylation of JNK”.
